# Results from US11820804B2, “Peptide-based inhibitors of growth hormone action and methods of use thereof” (Ohio University, priority 2018, dated 2023).
# How the values were obtained:
# Format in all cases: cell-based
# [1] = system: hGH mediated STAT5 phosphorylation in SK-MEL-28 human melanoma cells; assay: Western blot of hGH mediated STAT5 phosphorylation in SK-MEL-28 cells; details: co-treated with 2.5 nM recombinant hGH, peptide at 25 and 250 nM, 20 minutes
# Procedure: (§1) Human malignant melanoma cell lines—SK-MEL-28, SK-MEL-30, human lymphoblast IM9 cells, mouse fibroblast L cells were obtained from American Type Culture Collection (ATCC; Manassas, Va.). SK-MEL-28 were grown and maintained in EMEM media (ATCC), while IM9 and L cells were grown in RPMI-1640 (ATCC) and DMEM (ATCC) respectively, as indicated by ATCC protocols. Complete growth media was supplemented with 10% fetal bovine serum (FBS; ATCC) and 1×antibiotic-antimycotic (Thermo Fisher Scientific, Waltham, Mass.). Cells were grown at 37° C./5% CO2 in a humidified incubator. Media was replaced every 48 hours. No hGH was present in the media or added externally unless specifically mentioned. For hGH treatment of adherent cells, 12-16 hours after seeding the cells were serum-starved for 4 hours in serum free growth media and hGH (or PBS as control) was added at the mentioned concentrations (50 ng/mL=2.5 nM or other concentrations). […]
# (§2) Western blotting was performed following established lab procedures. […] Membranes were then washed and treated with West Femto Chemiluminiscence® detection reagents (Thermo Fisher Scientific) and the chemiluminiscence signal was captured using a GelDoc® (Biorad) fluorescence reader. Densitometry analysis of the blots was done by measured band-intensity from the area-under-curve using ImageJ® software. […]
# [2] = system: hGH mediated STAT5 phosphorylation in IM9 human lymphoblast cells; assay: Western blot of hGH mediated STAT5 phosphorylation in IM9 cells; details: co-treated with 2.5 nM recombinant hGH, peptide at 25 and 250 nM, 20 minutes
# Procedure: as §1, §2
# [3] = system: hGH mediated STAT5 phosphorylation in L mouse fibroblasts cells; assay: Western blot of hGH mediated STAT5 phosphorylation in L cells; details: L mouse fibroblast cells, co-treated with 2.5 nM recombinant hGH, peptide at 25 and 250 nM, 20 minutes
# Procedure: as §1, §2
# [4] = system: tyrosine pSTAT5 levels following hGH stimulation; assay: tyrosine pSTAT5 levels following hGH stimulation (cells not named at the place); details: general statement, cell line not named
# Text: A hallmark of hGH action is rapid tyrosine phosphorylation of the STAT5(A and B) transcription factor protein following binding of hGH to hGHR and transactivation of hGHR associated JAK2. The phosphorylation event is rapid (minutes following hGH addition) and has been used as a readout of hGHR activation. Inhibitors of hGH action blocks hGH-hGHR mediated STAT5 tyrosine phosphorylation in many cells, including IM9, SK-MEL-28, mouse fibroblasts, and other cells which express hGHR.
# as §1, with “mentioned.” for “mentioned. For hGH treatment of adherent cells, 12-16 hours after seeding the cells were serum-starved for 4 hours in serum free growth media and hGH (or PBS as control) was added at the mentioned concentrations (50 ng/mL=2.5 nM or other concentrations).”
substance,measurement,setting,value
"Tyr Ile Pro Lys Glu Gln Lys Tyr Ser Phe Leu Gln Asn Pro Gln Thr (YIPKEQKYSFLQNPQT; listed as Homo sapiens) [S1H, 16-amino acid peptide mimicking hGH site 1 helix, residues 36-51]",hGH mediated STAT5 phosphorylation (pSTAT5 levels),[1],downregulates hGH mediated STAT5 phosphorylation
same,hGH mediated STAT5 phosphorylation (phospho-STAT5 levels),[2],downregulates hGH mediated STAT5 phosphorylation
same,hGH mediated STAT5 phosphorylation (phospho-STAT5 levels),[3],downregulates hGH mediated STAT5 phosphorylation
same,tyrosine pSTAT5 levels following hGH stimulation,[4],"robustly blocks tyrosine pSTAT5 levels following hGH stimulation, in a dose-dependent manner"
